Measured values reported in patent US10092535B2, “Treatment of nervous system disorders using combinations of RXR agonists and thyroid hormones” (IO Therapeutics, Inc., priority 2015, dated 2018).
Entries after “also recorded” stand apart in the source; their conditions may differ.

Assays:
[1] = test system: mouse oligodendrocyte progenitor cells (OPCs); experiment: Mouse OPC differentiation with IRX4204 and T3; type: cell-based; details: 5-day treatment, 96-well plates
Method: OPCs were derived from plp-EGFP expressing mice.
Therapeutic agents were tested in 96-well plates (6 wells per concentration). […] All media contained 0.1% DMSO. At the end of the 5-day treatment, cells were imaged on Cellomics in two channels and algorithms were used to count nuclei and EGFP+oligodendrocytes.

LXRβ/RXR = LXRβ/RXR transactivation assay (CV-1 cells); type: cell-based; details: 20 hr; relative to T0901317
Excerpt: (§1) For PPARγ: CV-1 cells were transfected with 3×(rAOX/DR1)-tk-Luc reporter gene and an expression vector for PPARγ. For FXR:CV-1 cells were transfected with 3×(IBABP/IRI)-tk-Luc reporter gene and vectors for FXR and RXRα. For LXR:CV-1 cells were transfected with 3×(PLTP/LXRE)-tk-Luc reporter gene with vectors for LXRα or LXRβ. For Nurr1: COS 7 cells were transfected with 3×NBRE-tk-luc reporter gene and full length Nurr-1 with or without full-length RXRα plasmid. […] Luciferase data were normalized to co-transfected β-gal activity. Luciferase activity was expressed as percent of maximal activity obtained using specific agonists. Rosiglitazone (PPARγ), GW4064 (FXR), T0901317 (LXR).

Nurr1/RXR heterodimer = Nurr1/RXR heterodimer (Homo sapiens, UniProt P19793); experiment: Nurr1/RXR transactivation assay (COS 7 cells, NBRE-tk-luc); type: cell-based; details: Nurr-1 with or without RXRα
Nurr1/RXR heterodimer, sequence (P43354 whole entry partner, one chain of several): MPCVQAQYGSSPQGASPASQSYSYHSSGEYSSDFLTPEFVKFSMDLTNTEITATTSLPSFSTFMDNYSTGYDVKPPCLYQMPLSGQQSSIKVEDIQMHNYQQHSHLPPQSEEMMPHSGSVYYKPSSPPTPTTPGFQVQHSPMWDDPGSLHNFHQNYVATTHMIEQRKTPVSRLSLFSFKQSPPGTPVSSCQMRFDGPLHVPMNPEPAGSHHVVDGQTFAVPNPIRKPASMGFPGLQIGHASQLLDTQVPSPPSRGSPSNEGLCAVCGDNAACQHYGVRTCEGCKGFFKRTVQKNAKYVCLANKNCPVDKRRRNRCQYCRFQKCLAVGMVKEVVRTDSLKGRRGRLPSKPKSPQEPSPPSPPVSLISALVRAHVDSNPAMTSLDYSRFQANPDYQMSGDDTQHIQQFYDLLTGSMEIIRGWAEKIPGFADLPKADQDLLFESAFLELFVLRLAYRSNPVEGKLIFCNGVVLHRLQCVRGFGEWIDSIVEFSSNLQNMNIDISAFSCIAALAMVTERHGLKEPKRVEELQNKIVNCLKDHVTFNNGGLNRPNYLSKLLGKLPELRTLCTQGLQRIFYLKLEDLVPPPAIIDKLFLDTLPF
Excerpt: as §1

EAE in B6 mice = experiment: EAE dose titration in B6 mice with spleen and CNS flow analysis; type: in vivo
Method: A dose titration experiment was also conducted in EAE mice. EAE was induced in 28 B6 mice with MOG/CFA and PT as above. Mice were scored on day 7 as indicated above and divided into groups by score so means are as equal as possible.
At the completion of the experiment, the vehicle control and 200 μg/day groups were euthanized and spleen and CNS samples obtained.

LXRα/RXR = LXRα/RXR transactivation assay (CV-1 cells); type: cell-based; details: 20 hr; relative to T0901317
Excerpt: as §1

[2] = test system: focal demyelination of caudal cerebellar peduncles in rats; experiment: Ethidium bromide focal demyelination in one year old rats; type: in vivo; details: IRX4204 10 mg/kg/day oral, thyroxine 20 ng/g s.c., day 7 to 21
Method: The experiment uses rats of relatively advanced age (1 year) since such rats undergo remyelination in a less efficient manner, thereby providing data that are more relevant to the clinical treatment of human patients with multiple sclerosis or other demyelination disorders.
Focal demyelination is induced in one year old rats (approximately 300 g in weight) by injecting stereotactically 5 μl of ethidium bromide solution (0.01% vol/vol in saline) in a bilateral manner into the caudal cerebellar peduncles (CCP). […] The rats are killed on day 24 post-ethidium bromide treatment for analysis of remyelination by quantitative polymerase chain reaction (qPCR) and microscopy.

RXRα = biological target: T1, RXRα (Homo sapiens, UniProt P19793); details: transactivation assays
T1 sequence (P19793 1-462): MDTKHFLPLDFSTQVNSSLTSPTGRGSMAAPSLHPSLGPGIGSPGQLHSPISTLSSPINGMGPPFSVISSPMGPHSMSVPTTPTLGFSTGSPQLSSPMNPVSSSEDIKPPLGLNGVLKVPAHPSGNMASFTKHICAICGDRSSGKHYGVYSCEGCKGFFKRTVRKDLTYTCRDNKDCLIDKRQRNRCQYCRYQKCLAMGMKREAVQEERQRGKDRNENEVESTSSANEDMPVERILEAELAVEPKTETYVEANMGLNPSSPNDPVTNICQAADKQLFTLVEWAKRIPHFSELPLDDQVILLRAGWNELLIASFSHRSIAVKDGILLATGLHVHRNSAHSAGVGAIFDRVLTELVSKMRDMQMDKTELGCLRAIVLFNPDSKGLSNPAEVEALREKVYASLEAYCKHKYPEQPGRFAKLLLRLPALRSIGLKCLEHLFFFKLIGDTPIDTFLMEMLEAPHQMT
Method: To determine whether a RXR agonist can mediate its effects via RXRα receptor homodimers, RXRβ receptor homodimers, RXRγ receptor homodimers, or any combination thereof, or the corresponding RAR/RXR heterodimers, receptor-mediated transactivation assays were performed. For transactivation assays assessing RXR homodimer signaling, CV-1 cells were transfected with 1) an expression construct including a full length RXRα, RXRβ, or RXRγ; and 2) a rCRBPII/RXRE-tk-Luc reporter construct that included RXR homodimer-specific RXRE/DR1 responsive element linked to a luciferase gene. For transactivation assays assessing RAR/RXR heterodimer signaling, CV-1 cells were transfected with 1) an expression construct comprising a fusion protein including an estrogen receptor (ER) DNA binding domain linked to the ligand binding domain of RARα, RARβ, or RARγ and 2) a ERE-tk-Luc reporter construct that included an estrogen receptor responsive element linked to a luciferase gene. […] Data are mean values±SE from five independent experiments.

[3] = test system: cuprizone+rapamycin demyelination in C57BL/6J mice; experiment: Cuprizone/rapamycin 12-week demyelination, 6-week remyelination treatment; type: in vivo
Excerpt: All animals were sacrificed after 12 weeks of CR or after further 6 weeks of treatment to evaluate myelin in white matter (corpus callosum) and gray matter (hippocampus and cortex). In addition, the size of myelinated axons was quantified and the large myelinated axons were further assessed by 3D-electron microscopy (3D-EM). A total of 40 animals were included in the study, where all 40 animals received CR demyelination for 12 weeks. After demyelination, a subset (n=10) of animals are sacrificed to serve as controls to assess baseline demyelination. […] Floating brain sections are immunostained with myelin prolipid protein (PLP) to visualize and quantify myelin in gray matter, hippocampus (FIG. 16A) and cortex (FIG. 16B).

[4] = test system: cuprizone+rapamycin (CR) demyelination in C57BL/6J mice
Excerpt: Animals (8 week-old male C57BL/6J mice) were subjected to cuprizone diet plus rapamycin injections (CR) for 6 weeks to induce demyelination. […] All animals were sacrificed after 6 weeks of CR to evaluate axonal integrity and microglial/macrophage activity in the white matter (corpus callosum, CC).
A total of 50 animals were included in the study, where 43 animals received CR demyelination for 6 weeks. During demyelination, a subset (n=7) of animals were kept on normal diet to serve as naïve age-matched controls.
To assess thyroid hormone levels, terminal blood draws were taken to quantify the levels of T4.

EAE in SJL mice = EAE in SJL mice (PLP peptide); type: in vivo
Method: To determine whether a RXR agonist can attenuate multiple sclerosis, SJL mice were immunized to induce EAE by s.c. injection at the base of their spine with 200 μL of adjuvant containing 200 μg proteolipid proteins (139-151) (PLP peptide; Peptides International, Louisville, Ky.) and 400 μg of non-viable M. tuberculosis H37 desiccate emulsified in a mixture of incomplete Freund's adjuvant and PBS. Mice were also given 150 ng of pertussis toxin in PBS i.p. on the same day as PLP emulsion injection and 2 days later. […] Mice were scored using the scale described in Example 3.

[5] = test system: CNS infiltrating leukocytes in EAE C57BL/6 (B6) mice; experiment: CNS infiltrating cells in EAE B6 mice (FACS); type: in vivo; details: day 20 after immunization, vs vehicle control
Method: To determine whether a RXR agonist can reduce central nervous system (CNS) infiltrating cells, C57BL/6 (B6) mice were treated as described in Example 6. On day 20 after immunization, mice were sacrificed and perfused with phosphate buffered saline (PBS). Brain and spinal cord tissue was isolated, digested with DNase and LIBERASE DL® (Roche Diagnostics, Indianapolis, Ind.) for 30 minutes, and homogenized through 70 micron nylon mesh filters. Resulting cells were placed over a Percoll gradient to remove myelin. The remaining cells (microglia and CNS infiltrating cells) were counted, stained for molecules of interest, and run on a flow cytometer. Based on the frequencies obtained by FACS of these cell populations, total cell numbers of CNS infiltrating leukocytes expressing CD45, including CD4^+ T cells and CD11c^+ CD11b^+ myeloid dendritic cells (DC), were calculated.

[6] = test system: oligodendrocyte precursor cells (OPCs); experiment: OPC differentiation into oligodendrocytes (PLP-EGFP, Example 7); type: cell-based, mouse; details: compared to negative control (DMSO)
Excerpt: OPCs were generated from a neurosphere culture of E14.5 PLP-EGFP (on C57BL/6J background) mouse brains. […] The EGFP expressing cells were quantified with Cellomics Neuronal Profiling Algorithm.
The EGFP expressing cells in controls and all compounds were quantified with Cellomics Neuronal Profiling Algorithm.

[7] = test system: experimental autoimmune encephalomyelitis (EAE) in C57BL/6 (B6) mice; experiment: EAE in B6 mice (MOG peptide), disease severity score; type: in vivo; details: IRX4204 50 μg every other day from day 7 to day 20; vs vehicle
Method: Mice were also given 200 ng of pertussis toxin in PBS administered by inter-peritoneal (i.p.) injection on the same day as MOG emulsion injection (day 0) and 2 days later (day 2). […] Mice were scored using the following scale: 0—Mice have no disease, 1—Mice have distal limp tail or rear leg weakness (paresis), 1.5—Mice have distal limp tail and rear leg weakness, 2—Mice have complete limp tail and rear leg weakness, 2.5—Mice have complete limp tail and weakness in both rear legs, 3—Mice have complete limp tail and paralysis in both rear legs, 3.5—Mice have complete limp tail, paralysis in both rear legs, and forelimb weakness. Mice receiving a score of 3.5 were immediately euthanized.

[8] = CNS, restimulation with PMA/Ionomycin, 200 μg/day vs vehicle

Structure (SMILES): N[C@@H](Cc1cc(I)c(Oc2ccc(O)c(I)c2)c(I)c1)C(=O)O [Compound T3, triiodothyronine, reference compound]
- oligodendrocyte production (EGFP+ oligodendrocytes) [1]: clear dose-responses

Structure (SMILES): CC(/C=C/[C@@H]1C[C@]1(C)c1ccc2c(c1)C(C)(C)CCC2(C)C)=C\C(=O)O [IRX4204, 3,7-dimethyl-6(S),7(S)-methano,7-[1,1,4,4-tetramethyl-1,2,3,4-tetrahydronaphth-7-yl]2(E),4(E) heptadienoic acid]
- activation of LXRβ/RXR (LXRβ/RXR): not to transactivate; also recorded: does not activate
- oligodendrocyte production (EGFP+ oligodendrocytes) [1]: clear dose-responses
- activation of Nurr1/RXR heterodimer (Nurr1/RXR heterodimer): selectively activates the Nurr1/RXR permissive heterodimer; also recorded: selectively activates RXR-Nurr1 heterodimers
- EAE disease overall (EAE in B6 mice; 50 μg, 100 μg, or 200 μg every day from day 8, vs vehicle): significantly less disease overall
- Co-expression of IFNg and IL-17A by CD4 T cells in CNS (EAE in B6 mice; CNS, 200 μg/day vs vehicle): not significantly different between groups
- total number of infiltrating CD4 T cells in the CNS (EAE in B6 mice; CNS, 200 μg/day vs vehicle): reduced
- IFNγ production by CNS infiltrating lymphocytes (EAE in B6 mice; [8]): significantly reduced
- TNF production by CNS infiltrating lymphocytes (EAE in B6 mice; [8]): significantly reduced
- CCR6 expression on CD4 T cells (EAE in B6 mice; spleen, 200 μg/day vs vehicle): lowered CCR6
- CD4+ CD25hi cells (number) (EAE in B6 mice; spleen, 200 μg/day vs vehicle): reduced
- CD4+ CD25hi cells frequency (EAE in B6 mice; spleen, 200 μg/day vs vehicle): not altered
- CD49d expression on CD4 T cells (EAE in B6 mice; spleen, 200 μg/day vs vehicle): but not CD49d
- total number of effector and memory CD4 T cells (CD44 expression) (EAE in B6 mice; spleen, 200 μg/day vs vehicle): decreased
- total number of recently activated CD4 T cells (CD69 and CD44) (EAE in B6 mice; spleen, 200 μg/day vs vehicle): also decreased
- activation of LXRα/RXR (LXRα/RXR): not to transactivate; also recorded: does not activate
- Mbp expression (real-time qPCR of lesion samples) [2]: increase
- Pdgfra expression (real-time qPCR of lesion samples) [2]: increase
- remyelinated axons (ultrastructural analyses of CCP lesions) [2]: more remyelinated axons than vehicle treatment
- Nkx2.2+ oligodendrocyte precursor cells (OPCs) in lesions ([2]; vs vehicle): increased
- density of CC1+ differentiated oligodendrocytes in lesions ([2]; vs vehicle): increased
- density of Olig2+ oligodendrocyte lineage cells in lesions ([2]; vs vehicle): increased
- more potent in activating RXR receptors rather than RAR receptors (RXRα): > 1,000 fold
- body weight ([3]; 10 mg/kg PO daily for 6 weeks after 12 weeks CR): no significant difference
- size of myelinated axons in the corpus callosum ([3]; 6 weeks of treatment after 12 weeks CR): significantly increases; also recorded: shift in distribution to larger axon diameter
- size of axons in the upper quartile ([3]; 6 weeks of treatment, 3rd quartile, axons about 0.7 μm, P<0.0001): significant increase
- microglial/macrophage activation (Iba1 staining in CC) ([4]; 6 weeks concurrent treatment, vs vehicle): no difference
- terminal body weights ([4]; ANOVA, vs vehicle): no significant difference
- number of SMI32 positive axonal ovoids in the corpus callosum ([4]; IRX4204 10 mg/kg PO, T4 20 ng/g SQ daily for 6 weeks during CR, vs Vehicle, 10 mg/kg): trend towards decreased number of axonal ovoids but was not statistically different from the Vehicle; also recorded: trend towards decrease in axonal ovoids, but it was statistically not different from vehicle
- mortality during the in-life phase ([4]; mouse, in vivo): no mortality
- decrease in T4 levels compared to vehicle control animals ([4]; terminal blood draws): ~50%
- symptoms of EAE (disease severity score) (EAE in SJL mice; 50 μg i.p. every other day from day 7 to day 14): significantly reduces the symptoms of EAE
- Death from Disease (EAE in SJL mice; 50 μg i.p. every other day, n=6): 0/6
- infiltration of CD4+ cells in to the CNS [5]: significant reduction
- infiltration of CD11c+ CD11b+ cells (myeloid DC) in to the CNS [5]: significant reduction
- OPC differentiation into oligodendrocytes (number of EGFP positive cells) [6]: significant increase; also recorded: dose dependent increase
- symptoms of EAE (disease severity score) [7]: significantly reduces the symptoms of EAE
